IC50 data for 34 molecules are collected here from patent US20180186755A1, “LYSYL OXIDASE-LIKE 2 INHIBITORS AND USES THEREOF” (PharmAkea, Inc., priority 2015, published 2018).

One may read the pIC50 as the IC50 on a negative log10 scale, so that one unit is a factor of ten. Read a low pIC50 as a large IC50.

pIC50: −log10 of the molar value. Structures can show the parent of a compound that is named as a salt. A value given as a limit tells only on which side of the number the result lay.

The target of the test is T1, human LOXL2 (Homo sapiens, UniProt Q9Y4K0).
T1 construct: expressed in transfected cells; 10-20x concentrated conditioned media used as the enzyme source
T1 sequence (Q9Y4K0 26-774): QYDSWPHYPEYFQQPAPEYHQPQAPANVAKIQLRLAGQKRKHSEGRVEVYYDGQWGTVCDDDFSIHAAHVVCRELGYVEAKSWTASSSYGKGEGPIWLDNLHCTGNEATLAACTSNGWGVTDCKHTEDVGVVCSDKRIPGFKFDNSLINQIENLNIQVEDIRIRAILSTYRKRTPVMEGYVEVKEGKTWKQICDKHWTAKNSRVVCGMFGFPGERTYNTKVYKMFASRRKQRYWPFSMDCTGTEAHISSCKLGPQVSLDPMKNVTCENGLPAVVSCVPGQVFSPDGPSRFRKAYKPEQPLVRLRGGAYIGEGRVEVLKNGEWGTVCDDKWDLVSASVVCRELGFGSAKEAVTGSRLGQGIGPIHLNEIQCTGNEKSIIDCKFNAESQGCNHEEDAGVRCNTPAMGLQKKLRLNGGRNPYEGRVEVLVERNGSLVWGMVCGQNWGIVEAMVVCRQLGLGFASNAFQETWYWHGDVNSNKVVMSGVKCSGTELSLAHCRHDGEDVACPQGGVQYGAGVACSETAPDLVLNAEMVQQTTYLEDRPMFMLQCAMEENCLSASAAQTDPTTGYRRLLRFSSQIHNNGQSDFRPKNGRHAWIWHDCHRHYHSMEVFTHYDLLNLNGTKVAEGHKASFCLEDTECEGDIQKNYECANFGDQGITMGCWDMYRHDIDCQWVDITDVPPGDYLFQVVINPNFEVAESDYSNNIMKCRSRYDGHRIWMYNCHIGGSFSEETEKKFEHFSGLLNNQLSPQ
Put plainly: Human LOXL2 amine oxidase activity assay (Amplex Red fluorescence). Type of test: biochemical. The settings on record: concentrated conditioned media from CHO cells stably expressing human LOXL2; 2 h at 37° C. preincubation; DAP substrate. The method, then:
Example B-1: Human LOXL2 Amine Oxidase Activity Assay
LOXL2 amine oxidase activity is evaluated by measuring Amplex Red fluorescence using 10-20× concentrated conditioned media from CHO cells stably expressing human LOXL2.
To assay for amine oxidase activity, 10 μL of the concentrated conditioned media is incubated with 2 μL of test compound in DMSO and 73 μL Assay Buffer (50 mM Borate Buffer, pH8) for 2 h at 37° C. After the 2 h incubation, 5 ul of 10 mM 1,5-Diaminopentane (DAP) diluted in Assay Buffer and 10 μl of Amplex Red Mix (8.5 μl Assay Buffer+0.5 μl of 10 mM Amplex Red+1 μl of 500 U/ml Horseradish Peroxidase) are added and the plate mixed and immediately placed on the FlexStaion for fluorescence measurements. Fluorescence is read in kinetic mode every 2 min for 1 hour at excitation=544 and emission=590. The amine oxidase activity is calculated from the slope of the linear portion of the curve.
`Cn1cc(-n2ccc3c(Oc4cc(CN)ncn4)cccc32)cn1` [Compound 1-32, (6-((1-(1-Methyl-1H-pyrazol-4-yl)-1H-indol-4-yl)oxy)pyrimidin-4-yl)methanamine] gave a pIC50 greater than 7.00. Then `CN(C)C(=O)c1cccc(COc2cc(CN)ncn2)c1` [Compound 1-33, 3-(((6-(Aminomethyl)pyrimidin-4-yl)oxy)methyl)-N,N-dimethylbenzamide], with greater than 7.00; and `CC(C)(O)CNC(=O)c1cccc(COc2cc(CN)ncn2)c1` [Compound 1-34, 3-(((6-(Aminomethyl)pyrimidin-4-yl)oxy)methyl)-N-(2-hydroxy-2-methylpropyl)benzamide], with greater than 7.00.

In the case of `CS(=O)(=O)CCNC(=O)c1cccc(COc2cc(CN)ncn2)c1` [Compound 1-37, 3-(((6-(Aminomethyl)pyrimidin-4-yl)oxy)methyl)-N-(2-(methylsulfonyl)ethyl)benzamide], the pIC50 was greater than 7.00. `NCc1cc(OCc2cccc(C(=O)NCCN3CCOC3=O)c2)ncn1` [Compound 1-38, 3-(((6-(Aminomethyl)pyrimidin-4-yl)oxy)methyl)-N-(2-(2-oxooxazolidin-3-yl)ethyl)benzamide] showed a pIC50 greater than 7.00.

`NCc1cc(OCc2cccc(C(=O)NCCn3cccn3)c2)ncn1` [Compound 1-39, N-(2-(1H-Pyrazol-1-yl)ethyl)-3-(((6-(aminomethyl)pyrimidin-4-yl)oxy)methyl)benzamide] had a pIC50 greater than 7.00. Then `NCc1cc(OCc2cccc(C(=O)Nc3ccccc3)c2)ncn1` [Compound 1-40, 3-(((6-(Aminomethyl)pyrimidin-4-yl)oxy)methyl)-N-phenylbenzamide], with greater than 7.00; and `NCc1cc(OCc2cccc(C(=O)NCc3ccccc3)c2)ncn1` [Compound 1-41, 3-(((6-(Aminomethyl)pyrimidin-4-yl)oxy)methyl)-N-benzylbenzamide], with greater than 7.00; and `NCc1cc(Nc2cccc(C(=O)Nc3ccccc3)c2)ncn1` [Compound 1-42, 3-((6-(Aminomethyl)pyrimidin-4-yl)amino)-N-phenylbenzamide], with greater than 7.00. The value for `NCc1cc(NCc2cccc(C(=O)Nc3ccccc3)c2)ncn1` [Compound 1-43, 3-(((6-(Aminomethyl)pyrimidin-4-yl)amino)methyl)-N-phenylbenzamide] was greater than 7.00; that for `NCc1cc(NCc2cccc(C(=O)Nc3ccc(C(=O)O)cc3)c2)ncn1` [Compound 1-44, 4-(3-(((6-(Aminomethyl)pyrimidin-4-yl)amino)methyl)benzamido)benzoic acid] was 6.00 to 7.00. Then `CN(Cc1cccc(C(=O)Nc2ccccc2)c1)c1cc(CN)ncn1` [Compound 1-45, 3-(((6-(Aminomethyl)pyrimidin-4-yl)(methyl)amino)methyl)-N-phenylbenzamide], with 6.00 to 7.00. On to `NCc1cc(OCc2cccc(C(=O)NCCn3cnnn3)c2)ncn1` [Compound 1-46, N-(2-(1H-Tetrazol-1-yl)ethyl)-3-(((6-(aminomethyl)pyrimidin-4-yl)oxy)methyl)benzamide], for which the pIC50 is greater than 7.00. The value for `CS(=O)(=O)CCN1C(=O)CCc2c(Oc3cc(CN)ncn3)cccc21` [Compound 1-47, 5-((6-(Aminomethyl)pyrimidin-4-yl)oxy)-1-(2-(methylsulfonyl)ethyl)-3,4-dihydroquinolin-2(1H)-one] was greater than 7.00; that for `NCc1cc(Oc2cccc3c2ccn3CCO)ncn1` [Compound 1-48, 2-(4-((6-(Aminomethyl)pyrimidin-4-yl)oxy)-1H-indol-1-yl)ethan-1-ol] was greater than 7.00. The value for `NCc1cc(Oc2cccc3c2ccn3C2COC2)ncn1` [Compound 1-49, (6-((1-(Oxetan-3-yl)-1H-indol-4-yl)oxy)pyrimidin-4-yl)methanamine] was 6.00 to 7.00; that for `NCc1cc(Oc2cccc(C(=O)N3CCc4ccc(Cl)cc43)c2)ncn1` [Compound 1-50, (3-((6-(Aminomethyl)pyrimidin-4-yl)oxy)phenyl)(6-chloroindolin-1-yl)methanone] was greater than 7.00. The value for `NCc1cc(Oc2cccc(C(=O)N3CCc4cccnc43)c2)ncn1` [Compound 1-51, (3-((6-(Aminomethyl)pyrimidin-4-yl)oxy)phenyl)(2,3-dihydro-H-pyrrolo[2,3-b]pyridin-1-yl)methanone, hydrochloride] was greater than 7.00; that for `NCc1cc(Oc2cccc(C(=O)N3CCc4ccncc43)c2)ncn1` [Compound 1-52, (3-((6-(Aminomethyl)pyrimidin-4-yl)oxy)phenyl)(2,3-dihydro-H-pyrrolo[2,3-c]pyridin-1-yl)methanone, hydrochloride] was greater than 7.00; that for `NCc1cc(Oc2cccc(C(=O)NCc3cc4ccccc4[nH]3)c2)ncn1` [Compound 1-53, N-((1H-Indol-2-yl)methyl)-3-((6-(aminomethyl)pyrimidin-4-yl)oxy)benzamide] was greater than 7.00. `NCc1cc(Oc2cccc(C(=O)NCc3cccnc3)c2)ncn1` [Compound 1-54, 3-((6-(Aminomethyl)pyrimidin-4-yl)oxy)-N-(pyridin-3-ylmethyl)benzamide] gave a pIC50 greater than 7.00. The value for `NCc1cc(Oc2cccc(C(=O)NCc3ccccc3)c2)ncn1` [Compound 1-56, 3-((6-(Aminomethyl)pyrimidin-4-yl)oxy)-N-benzylbenzamide] was greater than 7.00; that for `NCc1cc(Oc2cccc(C(=O)N[C@@H](CO)c3ccccc3)c2)ncn1` [Compound 1-57, (R)-3-((6-(Aminomethyl)pyrimidin-4-yl)oxy)-N-(2-hydroxy-1-phenylethyl)benzamide] was greater than 7.00. The value for `NCc1cc(Oc2cccc(C(=O)N3CCN(c4ccccn4)CC3)c2)ncn1` [Compound 1-58, (3-((6-(Aminomethyl)pyrimidin-4-yl)oxy)phenyl)(4-(pyridin-2-yl)piperazin-1-yl)methanone] was greater than 7.00. The value for `CC1(C)CCN(C(=O)c2cccc(Oc3cc(CN)ncn3)c2)CC1` [Compound 1-59, (3-((6-(Aminomethyl)pyrimidin-4-yl)oxy)phenyl)(4,4-dimethylpiperidin-1-yl)methanone] was greater than 7.00; that for `NCc1cc(Oc2cccc3[nH]ncc23)ncn1` [Compound 1-60, (6-((1H-Indazol-4-yl)oxy)pyrimidin-4-yl)methanamine] was greater than 7.00; that for `NCc1cc(-n2ncc3c(CO)cccc32)ncn1` [Compound 1-61, (1-(6-(Aminomethyl)pyrimidin-4-yl)-1H-indazol-4-yl)methanol] was greater than 7.00. `NCc1cc(Oc2cccc(C(=O)NCc3ccc(-c4ccc(F)cc4)cc3)c2)ncn1` [Compound 1-62, 3-((6-(Aminomethyl)pyrimidin-4-yl)oxy)-N-((4′-fluoro-[1,1′-biphenyl]-4-yl)methyl)benzamide] showed a pIC50 greater than 7.00.

In the case of `NCc1cc(Oc2cccc(C(=O)NCc3ccc4ccccc4n3)c2)ncn1` [Compound 1-63, 3-((6-(Aminomethyl)pyrimidin-4-yl)oxy)-N-(quinolin-2-ylmethyl)benzamide], the pIC50 was greater than 7.00. As to `NCc1cc(Oc2cccc(C(=O)NCc3sc4ccccc4c3Cl)c2)ncn1` [Compound 1-64, 3-((6-(Aminomethyl)pyrimidin-4-yl)oxy)-N-((3-chlorobenzo[b]thiophen-2-yl)methyl)benzamide], the pIC50 was greater than 7.00. The value for `NCc1cc(Oc2cccc(C(=O)NCc3cc4cc(F)ccc4[nH]3)c2)ncn1` [Compound 1-65, 3-((6-(Aminomethyl)pyrimidin-4-yl)oxy)-N-((5-fluoro-1H-indol-2-yl)methyl)benzamide] was greater than 7.00; that for `Cn1c(CNC(=O)c2cccc(Oc3cc(CN)ncn3)c2)cc2ccccc21` [Compound 1-66, 3-((6-(Aminomethyl)pyrimidin-4-yl)oxy)-N-((1-methyl-1H-indol-2-yl)methyl)benzamide] was greater than 7.00; that for `NCc1cc(Oc2cccc(C(=O)NCc3cc4cccnc4[nH]3)c2)ncn1` [Compound 1-67, N-((1H-Pyrrolo[2,3-b]pyridin-2-yl)methyl)-3-((6-(aminomethyl)pyrimidin-4-yl)oxy)benzamide] was greater than 7.00.

In turn, `NCc1cc(Oc2cccc(C(=O)NCc3nc4ccccc4o3)c2)ncn1` [Compound 1-68, 3-((6-(Aminomethyl)pyrimidin-4-yl)oxy)-N-(benzo[d]oxazol-2-ylmethyl)benzamide] gave a pIC50 greater than 7.00.
